Laboratory results published in ChEMBL document CHEMBL2401615, “Peptide backbone replacement of hepatitis C virus NS3 serine protease C-terminal cleavage product analogs: discovery of potent succinamide inhibitors” (Bioorg Med Chem Lett, 2013).
In brackets after ≈: the same amount, converted by molar mass.

Legend:
[1] = Inhibition of Hepatitis C virus NS3 protease; set-up: species or system Hepacivirus hominis
[2] = Bioavailability in rat at 2 mg/kg, […]; assay type: ADME, organism-based; details: in vivo
[3] = Volume of distribution at steady state in rat at 2 mg/kg, iv; assay type: ADME, organism-based; set-up: dose 2 mg/kg, route intravenous; details: in vivo, read-out: Vdss
[4] = Clearance in rat at 2 mg/kg, iv; assay type: ADME, organism-based; set-up: dose 2 mg/kg, route intravenous; details: in vivo
[5] = Half life in rat at 2 mg/kg, iv; assay type: ADME, organism-based; set-up: dose 2 mg/kg, route intravenous; details: in vivo
Rattus norvegicus [6] = assay: Cmax in rat at 5 mg/kg, po; assay type: ADME, organism-based; set-up: dose 5 mg/kg, route oral; details: in vivo
Rattus norvegicus [7] = assay: AUC (0 to infinity) in rat at 5 mg/kg, po; assay type: ADME, organism-based, Plasma; set-up: time infinity, dose 5 mg/kg, route oral; details: in vivo
[8] = Half life in dog liver microsomes; assay type: ADME, Canis lupus familiaris, Microsome
[9] = Half life in monkey liver microsomes; assay type: ADME, Macaca mulatta, Microsome; details: rhesus monkey
[10] = Half life in human liver microsomes; assay type: ADME, Microsome
[11] = Half life in rat liver microsomes; assay type: ADME, Microsome
[12] = Permeability across basolateral to apical side in human Caco2 cells; assay type: ADME, cell-based; details: Caco-2, read-out: permeability
[13] = Permeability across apical to basolateral side in human Caco2 cells; assay type: ADME, cell-based; details: Caco-2, read-out: permeability
Hepatitis C virus [14] = assay: Antiviral activity against Hepatitis C virus; assay type: functional, organism-based, Hepacivirus hominis
[15] = Solubility of the compound at pH 7.2; assay type: physicochemical; details: buffer
Hepatitis C virus [16] = assay: Antiviral activity against Hepatitis C virus genotype 1b infected in human Huh-9-13 cells by replicon assay; assay type: functional, organism-based, Hepacivirus hominis
[17] = Plasma concentration in rat at 5 mg/kg measured at 1 hr; assay type: ADME, organism-based; set-up: dose 5 mg/kg

Structure (SMILES) | IC50 [1] [nM] | half-life [10] [h] | Papp A→B [13] [×10⁻⁶ cm/s] | EC50 (Hepatitis C virus [14]) [nM] | further results
C=C[C@@H]1C[C@]1(NC(=O)[C@@H]1C[C@@H](Oc2cc(-c3csc(NC(C)=O)n3)nc3cc(OC)ccc23)CN1C(=O)[C@@H](CC(=O)NC1CCCC1)C(C)(C)C)C(=O)O | 23 | – | – | – | –
C=C[C@@H]1C[C@]1(NC(=O)[C@@H]1C[C@@H](Oc2cc(-c3csc(NC(C)C)n3)nc3c(Br)c(OC)ccc23)CN1C(=O)[C@@H](CC(=O)NC1CCCC1)C(C)(C)C)C(=O)O | 10 | 3.45 | 8 | 3.5 | bioavailability [2]: 47%; Vd [3]: 1.3 L/kg; clearance [4]: 22 mL/min/kg; half-life [5]: 1.4 h; Cmax (Rattus norvegicus [6]): 850 nM; AUC (Rattus norvegicus [7]): 2.1 µM·h; half-life [8]: 2.55 h; half-life [9]: 0.867 h; half-life [11]: 3.13 h; Papp B→A [12]: 10 ×10⁻⁶ cm/s
C=C[C@@H]1C[C@]1(NC(=O)[C@@H]1C[C@@H](Oc2cc(-c3csc(NC(C)=O)n3)nc3cc(OC)ccc23)CN1C(=O)[C@@H](CC(=O)Nc1ccccc1)C(C)(C)C)C(=O)O | 13 | – | – | – | –
C=C[C@@H]1C[C@]1(NC(=O)[C@@H]1C[C@@H](Oc2cc(-c3csc(NC(C)=O)n3)nc3cc(OC)ccc23)CN1C(=O)[C@@H](CC(=O)NC(C)(C)C)C(C)(C)C)C(=O)O | 53 | – | – | – | –
C=C[C@@H]1C[C@]1(NC(=O)[C@@H]1C[C@@H](Oc2cc(-c3csc(NC(C)C)n3)nc3c(Br)c(OC)ccc23)CN1C(=O)[C@@H](NC(=O)OC1CCCC1)C(C)(C)C)C(=O)O | 8.9 | > 5 | 17 | 6.8 | half-life [8]: > 5 h; half-life [9]: 3.17 h; half-life [11]: 3.5 h; Papp B→A [12]: 2 ×10⁻⁶ cm/s
C=C[C@@H]1C[C@]1(NC(=O)[C@@H]1C[C@@H](Oc2nccc3cc(OC)ccc23)CN1C(=O)[C@@H](CC(=O)NC(C)(C)C)C(C)(C)C)C(=O)NS(=O)(=O)C1CC1 | 8.7 | – | – | 130 | –
C=C[C@@H]1C[C@]1(NC(=O)[C@@H]1C[C@@H](Oc2cc(OCC)nc3c(Br)c(OC)ccc23)CN1C(=O)[C@@H](CC(=O)NC(C)(C)C)C(C)(C)C)C(=O)NS(=O)(=O)C1CC1 | 0.8 | > 5 | 7.1 | 8.4 | solubility [15]: 83 mg/mL (≈ 99.4 mM)
C=C[C@@H]1C[C@]1(NC(=O)[C@@H]1C[C@@H](Oc2nccc3cc(OC)ccc23)CN1C(=O)[C@@H](NC(=O)OC(C)(C)C)C(C)(C)C)C(=O)NS(=O)(=O)C1CC1 | 2 | – | – | 3 | –
C=C[C@@H]1C[C@]1(NC(=O)[C@@H]1C[C@@H](Oc2cc(-c3csc(NC(C)=O)n3)nc3cc(OC)ccc23)CN1C(=O)[C@@H](NC(=O)NC(C)(C)C)C(C)(C)C)C(=O)O | 2.6 | – | – | – | –
C=C[C@@H]1C[C@]1(NC(=O)[C@@H]1C[C@@H](Oc2cc(-c3csc(NC(C)=O)n3)nc3cc(OC)ccc23)CN1C(=O)[C@@H](OC(=O)NC(C)(C)C)C(C)(C)C)C(=O)O | 140 | – | – | – | –
C=C[C@@H]1C[C@]1(NC(=O)[C@@H]1C[C@@H](Oc2cc(OCC)nc3c(Cl)cccc23)CN1C(=O)[C@@H](CC(=O)Nc1ccccc1)C(C)(C)C)C(=O)NS(=O)(=O)C1CC1 | 0.8 | > 5 | 3.9 | 6.5 | solubility [15]: 56 mg/mL (≈ 71.8 mM); half-life [11]: 2.67 h
C=C[C@@H]1C[C@]1(NC(=O)[C@@H]1C[C@@H](Oc2cc(OCC)nc3c(Cl)cccc23)CN1C(=O)[C@@H](CC(=O)NC(C)(C)C)C(C)(C)C)C(=O)NS(=O)(=O)C1CC1 | 0.9 | 1.58 | 3 | 69 | solubility [15]: 144 mg/mL (≈ 189 mM)
C=C[C@@H]1C[C@]1(NC(=O)[C@@H]1C[C@@H](Oc2cc(-c3ccccc3)nc3cc(OC)ccc23)CN1C(=O)[C@@H](CC(=O)N1CCCCC1)C(C)(C)C)C(=O)NS(=O)(=O)C1CC1 [SOVAPREVIR] | – | – | – | – | EC50 (Hepatitis C virus [16]): 11 nM
C=C[C@@H]1C[C@]1(NC(=O)[C@@H]1C[C@@H](Oc2cc(-c3csc(NC(C)=O)n3)nc3cc(OC)ccc23)CN1C(=O)[C@@H](NC(=O)OC(C)(C)C)C(C)(C)C)C(=O)O | 13 | – | – | – | –
C=C[C@@H]1C[C@]1(NC(=O)[C@@H]1C[C@@H](Oc2nccc3cc(OC)ccc23)CN1C(=O)[C@@H](CC(=O)Nc1ccccc1)C(C)(C)C)C(=O)NS(=O)(=O)C1CC1 | 1.7 | – | – | 64 | –
C=C[C@@H]1C[C@]1(NC(=O)[C@@H]1C[C@@H](Oc2cc(OCC)nc3c(Br)c(OC)ccc23)CN1C(=O)[C@@H](CC(=O)Nc1ccccc1)C(C)(C)C)C(=O)NS(=O)(=O)C1CC1 | 0.4 | 1.52 | 2.4 | 2.5 | concentration at 1 h [17]: 100 nM; solubility [15]: 45 mg/mL (≈ 52.6 mM); half-life [11]: > 5 h
